Source: patent publication EP1285920A1, “C10 Ester sustituted taxanes as antitumor agents” (Florida State University Research Foundation, Inc., priority 2001, dated 2003)
pIC50: −log10 of the molar value. Like-named read-outs stand apart in the source and are kept apart here.

Assays:
[1] = test system: HCT116; experiment: In Vitro cytotoxicity measured by the cell colony formation assay; type: cell-based, human; conditions: Homo sapiens, HCT-116; read-out: IN VITRO ID 50 HCT116
In short: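 Four hundred cells per dish in McCoy's 5a medium with 10% FBS were allowed to attach for 5 h at 37 °C. They were then exposed to compound for 72 h at 37 °C, added as a 10× stock made fresh in medium. After HBSS rinsing and refeeding, colonies were counted after 7 days.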

[2] = test system: A375 melanoma
Method: Dosing was initiated on Day 1. […] Taxotere was given i.v. on a qd x 1 schedule at a dose of 70 mg/kg. […] The study was terminated on Day 60. Treatment groups are detailed in Table 9.

[3] = test system: DU145 prostate carcinoma
Text: Dosing was initiated on Day 1. […] Treatment groups are detailed in Table 5.

[4] = test system: Panc-1 pancreatic carcinoma; experiment: In vivo evaluation against Panc-1 human pancreatic carcinoma (Example 17)
[5] = test system: VM46 colon carcinoma
Method: Dosing was initiated on Day 1. […] Taxotere was given i.v. at a dose of 70 mg/kg on a qd x 1 schedule.

[6] = number of mice, i.v. qd x 1 at estimated MTD (Taxol 24 mg/kg, Taxotere 70 mg/kg), 6 mice/group (Taxotere 7), Day 60
[7] = number of 5 mice, i.v. qd x 1 at estimated MTD (Taxol 24 mg/kg split), Day 91
[8] = Panc-1 (Example 17), i.v. qd x 1, six mice per group
[9] = number of mice, i.v. qd x 1, mg/kg: Taxol 36, 0499 77, 0503 72.6, 0670 123.1, 0706 107.6, 0838 72.6, 0854 76.9, 6 mice/group, Day 60
[10] = number of mice, i.v. qd x 1, mg/kg: Taxol 24, 0499 77, 0503 72.6, 0670 123.1, 0706 107.6, 0838 72.6, 0854 46.6, 0983 67.4, Taxotere 70, 6 mice/group, Day 64

For CCC(=O)O[C@H]1C(=O)[C@@]2(C)[C@H]([C@H](OC(=O)c3ccccc3)[C@]3(O)C[C@H](OC(=O)[C@H](O)[C@H](C=C(C)C)NC(=O)OC(C)(C)C)C(C)=C1C3(C)C)[C@]1(OC(C)=O)CO[C@@H]1C[C@@H]2O [Compound 0499], the pIC50 [1] was greater than 9.00, the Stable Disease ([2]; A375, i.v. qd x 1, six mice per group) was “one” and the “MDS (n)” value ([2]; mean days of survival until neoplasm reached 2.0 g, i.v. qd x 1 at estimated MTD (Taxol 24 mg/kg, Taxotere 70 mg/kg), 6 mice/group (Taxotere 7), terminated Day 60) was 30.5 ± 3.5 (3) days. The “Toxic Deaths” value ([2]; number of mice, i.v. qd x 1 at estimated MTD (Taxol 24 mg/kg, Taxotere 70 mg/kg), 6 mice/group (Taxotere 7)) was 2, the “Complete Response” value [2, 6] was 0 and the “Partial Response” value [2, 6] was 0. For the same molecule, the “Stable Disease” value [2, 6] was 1, the Survivors [2, 6] was 1 and the “Mean Score” value ([2]; tumor scoring system, i.v. qd x 1 at estimated MTD (Taxol 24 mg/kg, Taxotere 70 mg/kg), 6 mice/group (Taxotere 7)) was 2.3 ± 0.9. For the same molecule, the “Mean Score” value ([3]; i.v. qd x 1 at estimated MTD (Taxol 24 mg/kg split), 5 mice/group, Day 91) was 4.4 ± 1.4, the “MDS (n)” value ([3]; mean days of survival until tumor reached 1.5 g, i.v. qd x 1 at estimated MTD (Taxol 24 mg/kg as two split doses), 5 mice/group, study ended Day 91) was 67.2 ± 8.3 (3) days and the “Stable Disease” value ([3]; number of 5 mice, tumor did not reach 1.5 g by end of study, i.v. qd x 1 at estimated MTD (Taxol 24 mg/kg split), Day 91) was 1. The “Toxic Deaths” value ([3]; number of 5 mice, i.v. qd x 1 at estimated MTD (Taxol 24 mg/kg as two split doses), Day 91) was 0, the “Complete Response” value [3, 7] was 1 and the “Partial Response” value [3, 7] was 0. For the same molecule, the Survivors [3, 7] was 2, the MDS ([4]; Panc-1 (Example 17), i.v. qd x 1 (compounds estimated MTD; Taxol 36 mg/kg split), days until tumor 1.5 g, ended Day 60) was 47 to 56 days and the Partial Response [4, 8] was 1. For the same molecule, the Stable Disease [4, 8] was “one”, the complete responses [4, 8] was 2 and the “MDS (n)” value ([4]; mean days of survival until neoplasm reached 1.5 g, i.v. qd x 1, mg/kg: Taxol 36, 0499 77, 0503 72.6, 0670 123.1, 0706 107.6, 0838 72.6, 0854 76.9, 6 mice/group, terminated Day 60) was 56.1 ± 1.0 (2) days. For the same molecule, the “Toxic Deaths” value ([4]; number of mice, i.v. qd x 1, mg/kg: Taxol 36, 0499 77, 0503 72.6, 0670 123.1, 0706 107.6, 0838 72.6, 0854 76.9, 6 mice/group) was 0, the “Complete Response” value [4, 9] was 2 and the “Partial Response” value [4, 9] was 1. For the same molecule, the “Stable Disease” value [4, 9] was 1, the Survivors [4, 9] was 4 and the “Mean Score” value ([4]; tumor scoring system, i.v. qd x 1, mg/kg: Taxol 36, 0499 77, 0503 72.6, 0670 123.1, 0706 107.6, 0838 72.6, 0854 76.9, 6 mice/group) was 7.4 ± 1.4. For the same molecule, the “tolerability” value ([5]; VM46, i.v. qd x 1) was “well-tolerated”, the Toxic Deaths ([5]; VM46, i.v. qd x 1, six mice per group) was “no toxic deaths” and the “Mean Score” value ([5]; iv) was 2 ± 0.3. For the same molecule, the “MDS (n)” value ([5]; iv, 1536 h) was 41.9 ± 4.2 (5) days, the “Toxic Deaths” value ([5]; number of mice, i.v. qd x 1, mg/kg: Taxol 24, 0499 77, 0503 72.6, 0670 123.1, 0706 107.6, 0838 72.6, 0854 46.6, 0983 67.4, Taxotere 70, 6 mice/group) was 0 and the “Complete Response” value [5, 10] was 0. The “Partial Response” value [5, 10] was 0, the “Stable Disease” value [5, 10] was 1 and the Survivors [5, 10] was 1.
